For 18 compounds, inhibition, melting point and IC50 results are on record in US8263606B2 (Xenon Pharmaceuticals Inc., priority 2008, dated 2012).

Some results are limits rather than exact numbers.

One data set has as its target CYP3A4 (Homo sapiens, UniProt P08684). Put plainly: Cytochrome P450 (CYP450) Inhibition Assay, CYP3A4 (Vivid fluorescence, BOMCC substrate). The note with it: human, P450 Baculosomes (recombinant CYP3A4), probe BOMCC (Vivid substrate).
The test system of another data set is sodium channel. Kind of data set: Guanidine influx assay (14C-guanidine radiotracer flux, in vitro). The class given is cell-based, human or rat. To be noted: guanidine influx assay using a known cell line that expresses a sodium channel. In a few lines: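 Cells stably expressing human or rat sodium channels (~100,000/well, 20–24 h) were exposed in low-sodium choline buffer to test agent plus aconitine activator and 14C-guanidine at ambient temperature. Intracellular 14C-guanidine was counted by scintillation; IC50 fitted by 4-parameter logistic over half-dilutions around 1 μM.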

Sequence of CYP3A4 (P08684 whole entry): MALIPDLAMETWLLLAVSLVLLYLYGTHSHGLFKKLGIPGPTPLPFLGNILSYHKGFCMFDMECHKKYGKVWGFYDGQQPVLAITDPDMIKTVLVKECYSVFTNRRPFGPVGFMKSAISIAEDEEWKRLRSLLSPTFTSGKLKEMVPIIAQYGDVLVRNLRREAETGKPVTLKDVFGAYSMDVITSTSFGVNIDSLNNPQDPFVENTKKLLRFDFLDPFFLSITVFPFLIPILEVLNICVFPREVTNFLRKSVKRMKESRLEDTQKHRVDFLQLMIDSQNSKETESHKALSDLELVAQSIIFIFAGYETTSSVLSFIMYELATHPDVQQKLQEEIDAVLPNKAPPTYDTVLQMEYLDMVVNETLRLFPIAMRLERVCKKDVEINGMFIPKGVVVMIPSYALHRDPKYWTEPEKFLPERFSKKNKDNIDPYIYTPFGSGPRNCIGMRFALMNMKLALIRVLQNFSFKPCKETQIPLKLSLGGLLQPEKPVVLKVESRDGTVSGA

One may read the inhibition as the change of the read-out against control, counted positive when it falls. Broadly, the melting point is the temperature, or range, at which the solid turns liquid. What is called IC50 is the concentration that inhibits the measured activity by half. The compound `COc1cc2c(cc1C#N)C1(CO2)C(=O)N(Cc2ccccn2)c2ccccc21` (stereo not drawn) [Example 9.47, 6-methoxy-2′-oxo-1′-(pyridin-2-ylmethyl)-1′,2′-dihydrospiro[1-benzofuran-3,3′-indole]-5-carbonitrile] returned a melting point of 187 to 189 °C. The inhibition at 10 µM at CYP3A4 is more than 50%. In addition, the half-maximal inhibitory concentration (IC50) in the data set with sodium channel (activity level class) is 1000 to 10000 nM.
For `N#Cc1cc2c(cc1F)OCC21C(=O)N(Cc2ccccn2)c2ccccc21` (stereo not drawn) [Example 9.48, 6-fluoro-2′-oxo-1′-(pyridin-2-ylmethyl)-1′,2′-dihydrospiro[1-benzofuran-3,3′-indole]-5-carbonitrile] the same measures were 108 to 109 °C, more than 50% and 1000 to 10000 nM.
Consider `N#Cc1cc2c(cc1F)OCC21C(=O)N(Cc2ncccc2C(F)(F)F)c2ccccc21` (stereo not drawn) [Example 9.51, 6-fluoro-2′-oxo-1′-{[3-(trifluoromethyl)pyridin-2-yl]methyl}-1′,2′-dihydrospiro[1-benzofuran-3,3′-indole]-5-carbonitrile], for which the melting point lay in the range of 209 to 211 °C. Further, at CYP3A4, the inhibition at 10 µM is less than 50%. The IC50 with sodium channel lay in the range of 1000 to 10000 nM.
In the same order, the values of `COC(=O)c1cccc(CN2C(=O)C3(COc4cc5c(cc43)OCCO5)c3ccccc32)c1` (stereo not drawn) [Example 9.53, methyl 3-[(2′-oxo-2,3-dihydrospiro[furo[2,3-g][1,4]benzodioxine-8,3′-indol]-1′(2′H)-yl)methyl]benzoate] are 89 to 97 °C, more than 50% and 1 to 100 nM.
For `Cc1noc2cc3c(cc12)C1(CO3)C(=O)N(CCC(C)C)c2ccccc21` (stereo not drawn) [Example 9.55, 3-methyl-1′-(3-methylbutyl)spiro[furo[3,2-f][1,2]benzisoxazole-5,3′-indol]-2′(1′H)-one] the same measures were 135 to 138 °C, more than 50% and 1 to 100 nM.
In the same order, the values of `Cc1noc2cc3c(cc12)C1(CO3)C(=O)N(Cc2cnccn2)c2ccccc21` (stereo not drawn) [Example 9.56, 3-methyl-1′-(pyrazin-2-ylmethyl)spiro[furo[3,2-f][1,2]benzisoxazole-5,3′-indol]-2′(1′H)-one] are 170 to 173 °C, less than 50% and 1 to 100 nM.
`Cc1noc2cc3c(cc12)C1(CO3)C(=O)N(Cc2ncccc2F)c2ccccc21` (stereo not drawn) [Example 9.57, 1′-[(3-fluoropyridin-2-yl)methyl]-3-methylspiro[furo[3,2-f][1,2]benzisoxazole-5,3′-indol]-2′(1′H)-one] displayed a melting point of 167 to 169 °C. Also, the inhibition at 10 µM at CYP3A4 is less than 50%. For the same compound, the IC50 in the data set with sodium channel was 100 to 1000 nM.
Take `COC(=O)c1coc(CN2C(=O)C3(COc4cc5onc(C)c5cc43)c3ccccc32)n1` (stereo not drawn) [Example 9.58, methyl 2-[(3-methyl-2′-oxospiro[furo[3,2-f][1,2]benzisoxazole-5,3′-indol]-1′(2′H)-yl)methyl]-1,3-oxazole-4-carboxylate]: the melting point was in the range of 148 to 152 °C. Moreover, the inhibition at 10 µM on CYP3A4 was less than 50%. For the same compound, the IC50 in the data set with sodium channel was 100 to 1000 nM.
For `COC(=O)c1ccc(CN2C(=O)C3(COc4cc5c(cc43)OCCO5)c3ccccc32)cc1` (stereo not drawn) [Example 9.59, methyl 4-[(2′-oxo-2,3-dihydrospiro[furo[2,3-g][1,4]benzodioxine-8,3′-indol]-1′(2′H)-yl)methyl]benzoate] the same measures were 167 to 169 °C, less than 50% and 1 to 100 nM.
Compound `O=C1N(CC2CN(Cc3ccccc3)CCO2)c2ccccc2C12COc1cc3c(cc12)OCCO3` (stereo not drawn) [Example 9.60, 1′-[(4-benzylmorpholin-2-yl)methyl]-2,3-dihydrospiro[furo[2,3-g][1,4]benzodioxine-8,3′-indol]-2′(1′H)-one] gave a melting point of 88 to 100 °C. The inhibition at 10 µM at CYP3A4 was more than 50%. The half-inhibitory concentration (IC50) in the data set with sodium channel was 100 to 1000 nM.
For `O=C1c2ccccc2C(=O)N1CCCN1C(=O)C2(COc3cc4c(cc32)CCO4)c2ccccc21` (stereo not drawn) [Example 9.66, 2-[3-(2′-oxo-5,6-dihydrospiro[benzo[1,2-b:5,4-b′]difuran-3,3′-indol]-1′(2′H)-yl)propyl]-1H-isoindole-1,3(2H)-dione] the same measures were 214 to 217 °C, more than 50% and 1 to 100 nM.
For `O=C1N(Cc2ccc(OCc3ccccc3)cn2)c2ccccc2C12COc1ccc3nonc3c12` (stereo not drawn) [Example 9.67, 1-{[5-(benzyloxy)pyridin-2-yl]methyl}spiro[furo[3,2-e][2,1,3]benzoxadiazole-8,3′-indol]-2′(1′H)-one] the same measures were 209 to 212 °C, less than 50% and 100 to 1000 nM.
In the same order, the values of `COCCOCCN1C(=O)C2(COc3cc4c(cc32)OCCO4)c2c1ccc1ncsc21` (stereo not drawn) [Example 9.71, 6′-[2-(2-methoxyethoxy)ethyl]-2,3-dihydrospiro[furo[2,3-g][1,4]benzodioxine-8,8′-[1,3]thiazolo[5,4-e]indol]-7′(6′H)-one] are 156 to 158 °C, more than 50% and 100 to 1000 nM.
`O=C1N(Cc2ccccn2)c2ccc3ncsc3c2C12COc1cc3c(cc12)OCCO3` (stereo not drawn) [Example 9.72, 6′-(pyridin-2-ylmethyl)-2,3-dihydrospiro[furo[2,3-g][1,4]-benzodioxine-8,8′-[1,3]thiazolo[5,4-e]indol]-7′(6′H)-one]: the melting point fell in the range of 156 to 158 °C. Besides, at CYP3A4, the inhibition at 10 µM was more than 50%. Moreover, the IC50 with sodium channel lay within 100 to 1000 nM.
In the same order, the values of `COCCOCCN1C(=O)C2(COc3cc4c(cc32)OCCO4)c2c(OC)cc(OC)cc21` (stereo not drawn) [Example 9.73, 4′,6′-dimethoxy-1′-[2-(2-methoxyethoxy)ethyl]-2,3-dihydrospiro[furo[2,3-g][1,4]benzodioxine-8,3′-indol]-2′(1′H)-one] are 158 to 160 °C, more than 50% and 1000 to 10000 nM.
Consider `COc1cc(OC)c2c(c1)N(Cc1ccccn1)C(=O)C21COc2cc3c(cc21)OCCO3` (stereo not drawn) [Example 9.74, 4′,6′-dimethoxy-1′-(pyridin-2-ylmethyl)-2,3-dihydrospiro[furo[2,3-g][1,4]benzodioxine-8,3′-indol]-2′(1′H)-one], for which the melting point is 187 to 188 °C. In addition, the inhibition at 10 µM at CYP3A4 is more than 50%. Also, the half-maximal inhibitory concentration (IC50) with sodium channel lay within 100 to 1000 nM.
For `O=C1N(Cc2ccnnc2)c2ccccc2C12COc1cc3c(cc12)CCO3` (stereo not drawn) [Example 10, 1-(pyridazin-4-ylmethyl)-5,6-dihydrospiro[benzo[1,2-b:5,4-b′]difuran-3,3′-indol]-2′(1′H)-one] the same measures were 187 to 189 °C, more than 50% and 100 to 1000 nM.
For the compound `CN(C)c1ncc(CN2C(=O)C3(COc4cc5c(cc43)OCO5)c3ccccc32)s1` (stereo not drawn) [Example 11.1, 1′-{[2-(dimethylamino)-1,3-thiazol-5-yl]methyl}spiro[furo[2,3-f][1,3]benzodioxole-7,3′-indol]-2′(1′H)-one], the melting point lay in the range of 200 to 202 °C. Besides, the inhibition at 10 µM on CYP3A4 is more than 50%. Besides, the half-inhibitory concentration (IC50) in the data set on sodium channel is 1 to 100 nM.
